Data reported in patent US20240041042A1, “1-(PYRIDYL)-5-AZINYLPYRAZOLE DERIVATIVES, AND THEIR USE FOR CONTROL OF UNDESIRED PLANT GROWTH” (Bayer Aktiengesellschaft, priority 2020, published 2024).
Where two headings read alike, the source gives them in different places.

How the values were obtained:
Format in all cases: in vivo
[1] = test system: Lolium rigidum (LOLRI); experiment: Post-emergence herbicidal action against LOLRI
Summary of the method: (§1)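 Greenhouse plants sprayed at the one-leaf stage, 2–3 weeks after sowing, with WP or EC formulations plus 0.5% additive at 600 l/ha water. Activity rated visually after about 3 weeks versus untreated controls (100% = dead, 0% = like control), at 320 g/ha or lower.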

[2] = test system: Digitaria sanguinalis (DIGSA); experiment: Pre-emergence herbicidal action against DIGSA
Summary of the method: (§2)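 Seeds sown in pots and covered with soil; WP or EC formulations sprayed onto the soil surface at 600 l/ha water with 0.5% additive, at 320 g/ha or lower. Greenhouse growth for about 3 weeks, then visual scoring as % effect against untreated controls (100% = plants dead).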

[3] = test system: Amaranthus retroflexus (AMARE); experiment: Pre-emergence herbicidal action against AMARE; conditions: visual scoring after about 3 weeks vs untreated controls
Summary of the method: as §2

[4] = test system: Setaria viridis (SETVI); experiment: Pre-emergence herbicidal action against SETVI
Summary of the method: as §2

[5] = test system: Digitaria sanguinalis (DIGSA); experiment: Post-emergence herbicidal action against DIGSA; conditions: visual rating about 3 weeks after treatment
Summary of the method: as §1

[6] = test system: Alopecurus myosuroides (ALOMY); experiment: Pre-emergence herbicidal action against ALOMY; conditions: scored visually after about 3 weeks, 100% = plants have died
Summary of the method: as §2

[7] = test system: Oryza sativa (ORYSA); conditions: crop plant compatibility
Summary of the method: (§3)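 Test crops were treated 2 to 3 weeks after sowing, once they reached one leaf, by spraying compound in water with 0.5% additive at 600 l/ha. Visual scoring compared them with untreated controls roughly 3 weeks on, and appendices a, b and c denote different doses.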

[8] = test system: Triticum aestivum (TRZAS); conditions: crop plant compatibility, 80 g/ha, effect vs untreated controls
Summary of the method: as §3

[9] = 80 g/ha, visual scoring after about 3 weeks vs untreated controls
[10] = 80 g/ha, effect in comparison to untreated controls
[11] = 320 g/ha, effect in comparison to untreated controls

Compound	Post-emergence action against ORYSA in % [7, 10]	Post-emergence action against ORYSA in % [7, 11]	Post-emergence action against TRZAS in % [8]	Post-emergence action against ORYSA in % ([7]; 20 g/ha, effect vs untreated controls)	Post-emergence action against LOLRI in % ([1]; dosage 80 g/ha)	Post-emergence action against LOLRI in % ([1]; dosage 320 g/ha)	Pre-emergence action against DIGSA in % [2, 9]	Pre-emergence action against DIGSA in % ([2]; dosage 320 g/ha)	Pre-emergence action against AMARE in % ([3]; 80 g/ha)	Pre-emergence action against AMARE in % ([3]; 320 g/ha)	Pre-emergence action against SETVI in % ([4]; dosage 80 g/ha)	Pre-emergence action against SETVI in % ([4]; dosage 320 g/ha)	Post-emergence action against DIGSA in % ([5]; 80 g/ha)	Post-emergence action against DIGSA in % ([5]; 320 g/ha)	Pre-emergence action against ALOMY ([6]; 80 g/ha)	Pre-emergence action against ALOMY ([6]; 320 g/ha)
C[C@@H](Oc1nn(-c2nc(F)ccc2F)c(-c2cncc(F)c2)c1C1CC1)C(=O)O [Example I-180]					90%	90%	90%	100%	100%	100%	100%	100%	80%	80%	90%	100%
O=C(O)COc1nn(-c2nc(F)ccc2F)c(-c2cncc(F)c2)c1C1CC1 [Example I-148]					80%	80%	90%	100%	100%	100%	90%	100%	80%	90%	100%	100%
O=C(O)COc1nn(-c2ncccc2F)c(-c2ccc(F)nc2)c1Br [Example I-08]						90%	100%	100%	100%	100%	90%	100%		90%	100%	100%
C[C@@H](Oc1nn(-c2ncccc2F)c(-c2ccc(F)nc2)c1Br)C(=O)O [Example I-18]	10%	20%		0%		80%	100%	100%	100%	100%	100%	100%	90%	90%	100%	100%
CCOC(=O)COc1nn(-c2ncccc2F)c(-c2cncc(F)c2)c1C1CC1 [Example I-174]					80%	80%	100%	100%	100%	100%	90%	100%	90%	90%	90%	100%
O=C(O)COc1nn(-c2ccccn2)c(-c2cncnc2)c1Br [Example I-66]	10%	20%				90%	100%	100%	90%	100%	100%	100%		90%	100%	100%
COC(=O)COc1nn(-c2nc(F)ccc2F)c(-c2cncc(F)c2)c1C1CC1 [Example I-164]					80%	90%	90%	100%	100%	100%	100%	100%	80%	90%	100%	100%
COC(=O)COc1nn(-c2ncccc2F)c(-c2cncc(F)c2)c1C1CC1 [Example I-167]					80%	80%	100%	100%	100%	100%	100%	100%	90%	90%	90%	100%

Further lines, with some results ahead:

Post-emergence action against ORYSA in % [7, 10]	Post-emergence action against ORYSA in % [7, 11]	Post-emergence action against TRZAS in % [8]	Post-emergence action against ORYSA in % ([7]; 20 g/ha, effect vs untreated controls)	Compound	Post-emergence action against LOLRI in % ([1]; dosage 80 g/ha)	Post-emergence action against LOLRI in % ([1]; dosage 320 g/ha)	Pre-emergence action against DIGSA in % [2, 9]	Pre-emergence action against DIGSA in % ([2]; dosage 320 g/ha)	Pre-emergence action against AMARE in % ([3]; 80 g/ha)	Pre-emergence action against AMARE in % ([3]; 320 g/ha)	Pre-emergence action against SETVI in % ([4]; dosage 80 g/ha)	Pre-emergence action against SETVI in % ([4]; dosage 320 g/ha)	Post-emergence action against DIGSA in % ([5]; 80 g/ha)	Post-emergence action against DIGSA in % ([5]; 320 g/ha)	Pre-emergence action against ALOMY ([6]; 80 g/ha)	Pre-emergence action against ALOMY ([6]; 320 g/ha)
0%				CCOC(=O)[C@@H](C)Oc1nn(-c2nc(F)ccc2F)c(-c2cncc(F)c2)c1Cl [Example I-208]		80%	90%	100%	90%	100%	90%	100%	80%	90%	90%	100%
20%				O=C(O)COc1nn(-c2ncccc2F)c(-c2cncc(F)c2)c1C1CC1 [Example I-175]	80%	80%	100%	100%	100%	100%	90%	100%	90%	90%	100%	100%
10%	20%	20%		COC(=O)CNC(=O)[C@@H](C)Oc1nn(-c2ccccn2)c(-c2cncc(F)c2)c1Br [Example I-187]	90%	90%			80%	100%	100%	100%			90%	100%
0%				COC(=O)[C@H](C)COC(=O)COc1nn(-c2ccccn2)c(-c2cncc(F)c2)c1Cl [Example I-192]		80%	90%	100%	80%	100%	90%	100%	80%	80%	90%	90%
20%				COC(=O)[C@@H](C)COC(=O)COc1nn(-c2ccccn2)c(-c2cncc(F)c2)c1Br [Example I-194]	80%	90%	90%	100%	100%	100%	90%	100%	80%	90%	80%	100%
